Assay results: ChEMBL document CHEMBL5653631, “A Potent and Selective ULK1 Inhibitor Suppresses Autophagy and Sensitizes Cancer Cells to Nutrient Stress” (iScience, 2018)
Values belong to the molecule of their own block, whether it stands above or below them.

Key:
[1] = molecular target: MAP kinase-interacting serine/threonine-protein kinase 2 (Homo sapiens, UniProt Q9HBH9); assay: Inhibition of human recombinant MNK2 at 500 nM in presence of ATP by radiometric assay relative to control
[2] = molecular target: T1, Protein kinase C epsilon type (Homo sapiens) (UniProt Q02156); assay: Inhibition of human recombinant PKCe at 500 nM related to control ULK1
T1 sequence (whole entry): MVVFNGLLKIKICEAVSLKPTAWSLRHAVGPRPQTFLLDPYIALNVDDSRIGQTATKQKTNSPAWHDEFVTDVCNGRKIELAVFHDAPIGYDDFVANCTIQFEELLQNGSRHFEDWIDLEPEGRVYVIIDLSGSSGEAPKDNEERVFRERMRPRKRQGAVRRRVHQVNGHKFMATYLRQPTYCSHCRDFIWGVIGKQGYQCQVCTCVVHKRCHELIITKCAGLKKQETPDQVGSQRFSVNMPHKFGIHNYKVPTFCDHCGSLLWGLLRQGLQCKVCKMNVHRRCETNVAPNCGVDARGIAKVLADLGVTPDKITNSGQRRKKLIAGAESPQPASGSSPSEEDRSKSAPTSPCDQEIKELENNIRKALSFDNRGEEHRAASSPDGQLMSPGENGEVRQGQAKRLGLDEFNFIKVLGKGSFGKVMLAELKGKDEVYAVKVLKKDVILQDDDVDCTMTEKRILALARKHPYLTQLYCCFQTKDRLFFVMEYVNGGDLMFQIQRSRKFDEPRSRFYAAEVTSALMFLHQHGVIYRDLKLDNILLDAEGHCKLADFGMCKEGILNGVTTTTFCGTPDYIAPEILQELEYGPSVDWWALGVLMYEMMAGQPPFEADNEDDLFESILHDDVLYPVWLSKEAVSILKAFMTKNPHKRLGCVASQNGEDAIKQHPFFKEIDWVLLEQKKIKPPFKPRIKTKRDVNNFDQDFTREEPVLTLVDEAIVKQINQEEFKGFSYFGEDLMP

[3] = molecular target: Casein kinase I isoform gamma-2 (Homo sapiens) (UniProt P78368); assay: Inhibition of human recombinant CK1g2 at 500 nM in presence of ATP by radiometric assay relative to control
[4] = molecular target: T2, Serine/threonine-protein kinase ULK1 (Homo sapiens) (UniProt O75385); assay: Inhibition of human recombinant ULK1 at 500 nM in presence of ATP by radiometric assay relative to control
T2 sequence (whole entry): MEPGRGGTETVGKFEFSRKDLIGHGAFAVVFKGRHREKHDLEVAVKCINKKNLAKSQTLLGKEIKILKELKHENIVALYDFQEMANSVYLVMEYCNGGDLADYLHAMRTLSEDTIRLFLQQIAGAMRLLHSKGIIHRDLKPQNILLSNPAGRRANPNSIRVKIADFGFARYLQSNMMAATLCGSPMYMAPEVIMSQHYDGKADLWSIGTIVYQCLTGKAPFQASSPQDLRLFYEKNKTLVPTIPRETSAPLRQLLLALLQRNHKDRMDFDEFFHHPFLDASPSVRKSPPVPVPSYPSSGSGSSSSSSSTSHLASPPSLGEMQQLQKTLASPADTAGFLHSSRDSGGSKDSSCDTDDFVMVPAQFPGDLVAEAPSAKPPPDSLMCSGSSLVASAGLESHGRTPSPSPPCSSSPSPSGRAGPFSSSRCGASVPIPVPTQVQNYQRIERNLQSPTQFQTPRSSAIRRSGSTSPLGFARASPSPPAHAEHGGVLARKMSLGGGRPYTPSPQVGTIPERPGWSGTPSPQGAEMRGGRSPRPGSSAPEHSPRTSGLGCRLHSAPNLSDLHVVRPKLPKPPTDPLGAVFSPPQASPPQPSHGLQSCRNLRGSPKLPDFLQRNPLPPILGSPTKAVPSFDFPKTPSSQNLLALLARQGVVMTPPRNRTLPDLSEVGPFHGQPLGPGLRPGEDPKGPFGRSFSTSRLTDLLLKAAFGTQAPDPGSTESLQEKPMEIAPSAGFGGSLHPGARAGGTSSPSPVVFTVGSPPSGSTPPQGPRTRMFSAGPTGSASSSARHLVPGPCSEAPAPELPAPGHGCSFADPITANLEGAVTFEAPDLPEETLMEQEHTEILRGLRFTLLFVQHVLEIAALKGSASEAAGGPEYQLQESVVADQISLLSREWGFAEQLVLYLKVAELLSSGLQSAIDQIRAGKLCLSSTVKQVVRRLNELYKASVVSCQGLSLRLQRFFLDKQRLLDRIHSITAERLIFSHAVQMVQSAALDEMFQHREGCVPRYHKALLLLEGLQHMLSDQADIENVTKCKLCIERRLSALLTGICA

[5] = molecular target: TRAF2 and NCK-interacting protein kinase (Homo sapiens) (UniProt Q9UKE5); assay: Inhibition of human recombinant TNIK at 15 nM in presence of ATP by radiometric assay relative to control
[6] = molecular target: Tyrosine-protein kinase HCK (Homo sapiens) (UniProt P08631); assay: Inhibition of human recombinant HCK at 15 nM related to control ULK1
[7] = molecular target: Serine/threonine-protein kinase pim-3 (Homo sapiens) (UniProt Q86V86); assay: Inhibition of human recombinant PIM3 at 15 nM related to control ULK1
[8] = molecular target: Dual specificity protein kinase CLK1 (Homo sapiens) (UniProt P49759); assay: Inhibition of human recombinant CLK1 at 40 nM related to control ULK1
[9] = molecular target: Serine/threonine-protein kinase N2 (Homo sapiens) (UniProt Q16513); assay: Inhibition of human recombinant PKN2 at 40 nM related to control ULK1
[10] = molecular target: Activin receptor type-2A (Homo sapiens) (UniProt P27037); assay: Inhibition of human recombinant ACTR2 at 40 nM in presence of ATP by radiometric assay relative to control
[11] = molecular target: Calcium/calmodulin-dependent protein kinase kinase 1 (Homo sapiens) (UniProt Q8N5S9); assay: Inhibition of human recombinant CaMKK1 at 40 nM in presence of ATP by radiometric assay relative to control
[12] = molecular target: Cyclin-dependent kinase 1 (Homo sapiens) (UniProt P06493); assay: Inhibition of human recombinant CDC2 at 40 nM related to control ULK1
[13] = molecular target: Protein kinase C delta type (Homo sapiens) (UniProt Q05655); assay: Inhibition of human recombinant PKCd at 40 nM in presence of ATP by radiometric assay relative to control

inhibition [1]: 2%
fold change (FC) [2]: 0
inhibition [3]: 0%
inhibition [4]: 74%
Structure (SMILES): CNC(=O)c1ccccc1Oc1nc(Nc2cc(OC)c(OC)c(OC)c2)ncc1Br

inhibition [5]: 5%
fold change (FC) [6]: 0.3
fold change (FC) [7]: 0.02
Structure (SMILES): CC(C)[C@H](NC(=O)c1cc(-c2cnn3cc(-c4ccc(OCCN5CCCCC5)cc4)cnc23)cs1)C(F)(F)F

fold change (FC) [8]: 0.47
fold change (FC) [9]: 0
inhibition [10]: 1%
inhibition [11]: 0%
fold change (FC) [12]: 0.62
inhibition [13]: 3%
Structure (SMILES): O=C(N[C@@H](C1CC1)C(F)(F)F)c1cc(-c2cnn3cc(-c4ccc(F)cc4)cnc23)cs1
